Results reported in patent US11352322B2, “Cyclopropyl-amide compounds as dual LSD1/HDAC inhibitors” (Jubilant Epicore LLC, priority 2016, dated 2022).
Structures can show the parent of a compound that is named as a salt.

Assays:
MM1S = assay: Anticancer activity: Alamar Blue assay, MM1S; format: cell-based; conditions: Homo sapiens, MM1.S, read-out: MM1S EC50
Procedure: Cells were seeded at 5000 cells/per well in 96-well tissue culture plate and incubated at 37° C./5% CO2. After 16-24 hours, fresh media was added to the wells. Compounds were then (1% DMSO conc.) added to the cells at 10 concentrations ranging from 10-0.0005 uM prepared in 3-fold serial dilutions. Cells were incubated for 68-72 h at 37° C./5% CO2. Alamar Blue™ reagent was added and incubated for 1-3 hours at 37° C./5% CO2. Plates were read on fluorescence reader at 540 nm excitation, 590 nm emission wave lengths.

[1] = Metabolic stability in liver microsomes, MLM; conditions: 1 μM, NADPH
Procedure: (§1) The microsomal suspension was prepared by adding liver microsomes to 100 mM potassium phosphate buffer (pH7.4) to give a final protein concentration of 0.5 mg/mL. The stock solution of NCE (10 mM in DMSO) was added to the microsomes to provide a final concentration of 1 μM. […] Samples were vortexed and centrifuged at 5,000 rpm for 10 min to remove proteins. Supernatant were analyzed on LC-MS/MS.

[2] = Metabolic stability in liver microsomes, HLM; conditions: 1 μM, NADPH
Procedure: as §1

[3] = biological target: HDAC6 human recombinant enzyme (Homo sapiens (Human), UniProt Q9UBN7); assay: Histone Deacetylase Assay (BPS Biosciences), HDAC6; format: biochemical
Sequence of HDAC6 human recombinant enzyme (Q9UBN7 whole entry): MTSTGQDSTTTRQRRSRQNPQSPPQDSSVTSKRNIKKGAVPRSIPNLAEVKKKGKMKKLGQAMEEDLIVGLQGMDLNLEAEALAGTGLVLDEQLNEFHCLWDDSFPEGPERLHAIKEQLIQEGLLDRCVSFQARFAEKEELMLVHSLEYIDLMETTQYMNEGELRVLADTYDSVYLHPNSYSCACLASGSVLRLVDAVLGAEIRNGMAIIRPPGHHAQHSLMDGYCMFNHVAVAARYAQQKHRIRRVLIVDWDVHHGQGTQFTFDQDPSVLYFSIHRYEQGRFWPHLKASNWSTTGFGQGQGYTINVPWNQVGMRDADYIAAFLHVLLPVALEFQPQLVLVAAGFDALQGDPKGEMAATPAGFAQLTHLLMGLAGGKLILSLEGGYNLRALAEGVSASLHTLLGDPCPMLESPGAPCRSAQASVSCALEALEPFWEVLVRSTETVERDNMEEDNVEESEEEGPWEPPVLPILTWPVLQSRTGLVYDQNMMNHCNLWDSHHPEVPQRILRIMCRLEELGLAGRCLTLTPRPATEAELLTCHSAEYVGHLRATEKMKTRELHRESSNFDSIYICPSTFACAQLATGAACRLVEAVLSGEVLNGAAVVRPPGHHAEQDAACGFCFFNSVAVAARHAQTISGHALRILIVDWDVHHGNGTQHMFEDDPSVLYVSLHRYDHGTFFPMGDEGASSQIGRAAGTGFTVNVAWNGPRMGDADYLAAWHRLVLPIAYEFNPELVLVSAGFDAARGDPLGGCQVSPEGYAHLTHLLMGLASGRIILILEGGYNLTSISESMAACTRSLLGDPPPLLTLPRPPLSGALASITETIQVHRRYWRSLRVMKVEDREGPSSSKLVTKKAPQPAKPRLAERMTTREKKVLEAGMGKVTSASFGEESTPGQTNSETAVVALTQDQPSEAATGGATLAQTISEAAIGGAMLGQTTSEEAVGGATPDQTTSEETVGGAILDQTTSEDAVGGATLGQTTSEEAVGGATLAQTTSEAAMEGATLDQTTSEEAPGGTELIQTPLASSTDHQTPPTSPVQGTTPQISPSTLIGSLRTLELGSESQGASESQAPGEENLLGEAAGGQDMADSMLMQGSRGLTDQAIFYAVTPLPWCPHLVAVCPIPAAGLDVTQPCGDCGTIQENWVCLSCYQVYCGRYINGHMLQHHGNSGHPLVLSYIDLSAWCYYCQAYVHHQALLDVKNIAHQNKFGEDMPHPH
Source text: Histone Deacetylase Assay (BPS Biosciences)
Histone deacetylase assay was done as per manufacturer's instructions.

| IC50 [3] [nM] | Structure (SMILES) | EC50 (MM1S) [nM] | Metabolic stability MLM % remaining in 30 min [1] [%] | Metabolic stability HLM % remaining in 30 min [2] [%] |
| --- | --- | --- | --- | --- |
| – | COc1ccc(C2CC2NC2CCN(c3ncc(C(=O)NO)cn3)CC2)cc1 (stereo not drawn) [Example 19, N-hydroxy-2-(4-((2-(4-methoxyphenyl)cyclopropyl)amino)piperidin-1-yl)pyrimidine-5-carboxamide TFA Salt] | 7 | 71 | 83 |
| – | O=C(NO)c1cnc(N2CCn3cc(CNC4CC4c4ccccc4)nc3C2)nc1 (stereo not drawn) [Example 23, N-hydroxy-2-(2-(((2-phenylcyclopropyl)amino)methyl)-5,6-dihydroimidazo[1,2-a]pyrazin-7(8H)-yl)pyrimidine-5-carboxamide TFA Salt] | 11 | 85 | 95 |
| – | COc1ccc(C2CC2NCc2cn3c(n2)CN(c2ncc(C(=O)NO)cn2)CC3)cc1 (stereo not drawn) [Example 24, N-hydroxy-2-(2-(((2-(4-methoxyphenyl)cyclopropyl)amino)methyl)-5,6-dihydroimidazo[1,2-a]pyrazin-7(8H)-yl)pyrimidine-5-carboxamide TFA Salt] | 9 | 74 | 71 |
| – | O=C(NO)c1cnc(N2CCn3cc(CNC4CC4c4ccc(F)cc4)nc3C2)nc1 (stereo not drawn) [Example 25, 2-(2-(((2-(4-fluorophenyl)cyclopropyl)amino)methyl)-5,6-dihydroimidazo[1,2-a]pyrazin-7(8H)-yl)-N-hydroxypyrimidine-5-carboxamide TFA Salt] | 11 | 85 | 75 |
| – | O=C(NO)c1ccc(CCCNC2CC2c2ccc(F)cc2)cc1 (stereo not drawn) [Example 30, 4-(3-((2-(4-fluorophenyl)cyclopropyl)amino)propyl)-N-hydroxybenzamide TFA Salt] | 45 | 51 | 16 |
| – | O=C(CCCCCCNC(=O)c1ccc(CNC2CC2c2ccc(F)cc2)cc1)NO (stereo not drawn) [Example 32, 4-(((2-(4-fluorophenyl)cyclopropyl)amino)methyl)-N-(7-(hydroxyamino)-7-oxoheptyl)benzamide TFA Salt] | 17 | 22 | 41 |
| – | O=C(NO)c1ccc(CCCN2CCC(CNC3CC3c3cccc(F)c3)CC2)cc1 (stereo not drawn) [Example 49, 4-(3-(4-(((2-(3-fluorophenyl)cyclopropyl)amino)methyl)piperidin-1-yl)propyl)-N-hydroxybenzamide TFA Salt] | 62 | 34 | 48 |
| 104 | O=C(NO)c1ccc(CCCN2CCC(CNC3CC3c3cnn(-c4ccccc4)c3)CC2)cc1 (stereo not drawn) [Example 68, N-hydroxy-4-(3-(4-(((2-(1-phenyl-1H-pyrazol-4-yl)cyclopropyl)amino)methyl)piperidin-1-yl)propyl)benzamide TFA Salt] | – | – | – |
| – | O=C(NO)c1ccc(CCCn2cnc(CNC3CC3c3ccc(F)c(F)c3)c2)cc1 (stereo not drawn) [Example 73, 4-(3-(4-(((2-(3,4-difluorophenyl)cyclopropyl)amino)methyl)-1H-imidazol-1-yl)propyl)-N-hydroxybenzamide TFA Salt] | 540 | 53 | 52 |
| 77 | O=C(NO)c1ccc(CCS(=O)(=O)N2CCC(CNC3CC3c3ccccc3)CC2)cc1 (stereo not drawn) [Example 88, N-hydroxy-4-(2-((4-(((2-phenylcyclopropyl)amino)methyl)piperidin-1-yl)sulfonyl)ethyl)benzamide TFA Salt] | – | – | – |
| – | O=C(NO)c1ccc(CN2CCN(C(=O)CNC3CC3c3ccccc3)CC2)cc1 (stereo not drawn) [Example 91, N-hydroxy-4-((4-(2-((2-phenylcyclopropyl)amino)acetyl)piperazin-1-yl)methyl)benzamide TFA Salt] | 468 | 79 | 85 |
| – | O=C(NO)c1ccc(CCC(=O)N2CCN(C(=O)CNC3CC3c3ccccc3)CC2)cc1 (stereo not drawn) [Example 92, N-hydroxy-4-(3-oxo-3-(4-(2-((2-phenylcyclopropyl)amino)acetyl)piperazin-1-yl)propyl)benzamide TFA Salt] | 1400 | 91 | 95 |
| – | O=C(NO)c1ccc(OCCCN2CCC(CNC3CC3c3ccccc3)CC2)cc1 (stereo not drawn) [Example 100, N-hydroxy-4-(3-(4-(((2-phenylcyclopropyl)amino)methyl)piperidin-1-yl)propoxy)benzamide TFA Salt] | 17 | 57 | 63 |
| – | O=C(NO)c1ccc(OCCCNC2CC2c2ccccc2)cc1 (stereo not drawn) [Example 101, N-hydroxy-4-(3-((2-phenylcyclopropyl)amino)propoxy)benzamide TFA Salt] | 29 | 29 | 59 |
| – | O=C(NO)c1ccc2c(c1)CN(C(=O)CCCNC1CC1c1ccc(F)cc1)C2 (stereo not drawn) [Example 108, 2-(4-((2-(4-fluorophenyl)cyclopropyl)amino)butanoyl)-N-hydroxyisoindoline-5-carboxamide TFA Salt] | 584 | 85 | > 95 |
| – | Nc1ccccc1NC(=O)c1ccc(CCCN2CCC(CNC3CC3c3ccccc3)CC2)cc1 (stereo not drawn) [Example 121, N-(2-aminophenyl)-4-(3-(4-(((2-phenylcyclopropyl)amino)methyl)piperidin-1-yl)propyl)benzamide TFA Salt] | 3 | 42 | 36 |
| – | Nc1ccccc1NC(=O)c1ccc(CCCN2CCC(CNC3CC3c3ccc(F)cc3)CC2)cc1 (stereo not drawn) [Example 122, N-(2-aminophenyl)-4-(3-(4-(((2-(4-fluorophenyl)cyclopropyl)amino)methyl)piperidin-1-yl)propyl)benzamide TFA Salt] | 15 | 72 | 77 |
| – | COc1ccc(C2CC2NCC2CCN(CCCc3ccc(C(=O)Nc4ccccc4N)cc3)CC2)cc1 (stereo not drawn) [Example 123, N-(2-aminophenyl)-4-(3-(4-(((2-(4methoxyphenyl)cyclopropyl)amino)methyl)piperidin-1-yl)propyl)benzamide TFA Salt] | 9 | 72 | 82 |
| – | Nc1ccccc1NC(=O)c1ccc(CCCN2CCC(CNC3CC3c3ccc(F)c(F)c3)CC2)cc1 (stereo not drawn) [Example 124, N-(2-aminophenyl)-4-(3-(4-(((2-(3,4-difluorophenyl)cyclopropyl)amino)methyl)piperidin-1-yl)propyl)benzamide TFA Salt] | 14 | 68 | 73 |
| > 10000 | Nc1ccccc1NC(=O)c1ccc(CCCN2CCC(CNC3CC3c3cnn(-c4ccccc4)c3)CC2)cc1 (stereo not drawn) [Example 129, N-(2-aminophenyl)-4-(3-(4-(((2-(1-phenyl-1H-pyrazol-4-yl)cyclopropyl)amino)methyl)piperidin-1-yl)propyl)benzamide TFA Salt] | – | – | – |
